Publication PMC2248166, “Quantitative peptide binding motifs for 19 human and mouse MHC class I molecules derived using positional scanning combinatorial peptide libraries” (Immunome Research, 2008)
Where a SMILES comes first, the peptide text is derived from it.

Each molecule was assayed against HLA B*0801 (Homo sapiens, UniProt P01889, A93T/A95T/D138N/E176V/E187T/K202T/Q94N/R180D/S35A/V36M/Y33D/Y91F) (assay: biochemical).
Assay type: binding

| SMILES | IC50 [nM] |
| --- | --- |
| CC[C@H](C)[C@H](NC(=O)[C@H](CC(=O)O)NC(=O)[C@H](CC(C)C)NC(=O)[C@H](CCCCN)NC(=O)[C@H](CCCCN)NC(=O)[C@H](CCCNC(=N)N)NC(=O)[C@H](CCCCN)NC(=O)[C@@H](NC(=O)[C@@H](N)Cc1ccccc1)C(C)C)C(=O)O [3102.0707] (H-FVKRKKLDI-OH) | 3 |
| CC[C@H](C)[C@H](NC(=O)[C@H](CCCCN)NC(=O)[C@H](CC(C)C)NC(=O)[C@@H](N)Cc1ccccc1)C(=O)N[C@@H](CCCCN)C(=O)N[C@H](C(=O)N[C@H](C(=O)N[C@@H](C)C(=O)N[C@@H](C)C(=O)O)[C@@H](C)O)C(C)C [3102.0685] (H-FLKIKVTAA-OH) | 15 |
| CC[C@H](C)[C@H](NC(=O)[C@H](CC(C)C)NC(=O)[C@@H](N)CCSC)C(=O)N[C@@H](CC(C)C)C(=O)N[C@@H](CC(N)=O)C(=O)N[C@@H](Cc1ccccc1)C(=O)N[C@@H](CS)C(=O)N[C@@H](CCCCN)C(=O)N[C@@H](CC(C)C)C(=O)O [3102.0702] (H-MLILNFCKL-OH) | 3.9 |
| CC[C@H](C)[C@H](NC(=O)[C@H](CCCNC(=N)N)NC(=O)[C@@H](NC(=O)[C@H](CCCCN)NC(=O)[C@H](CC(C)C)NC(=O)[C@@H](N)CCCNC(=N)N)[C@@H](C)O)C(=O)N[C@@H](CCCNC(=N)N)C(=O)N[C@@H](CC(N)=O)C(=O)N[C@@H](CC(C)C)C(=O)O [3102.0740] (H-RLKTRIRNL-OH) | 0.69 |
| CC[C@H](C)[C@H](NC(=O)[C@H](CCCNC(=N)N)NC(=O)[C@@H](N)Cc1ccc(O)cc1)C(=O)N[C@@H](C)C(=O)N[C@@H](CCCCN)C(=O)N[C@@H](Cc1ccccc1)C(=O)N[C@@H](CC(C)C)C(=O)N[C@@H](Cc1ccccc1)C(=O)N[C@@H](CCSC)C(=O)O [3102.0708] (H-YRIAKFLFM-OH) | 17 |
| CC(C)C[C@H](NC(=O)[C@H](CCC(=O)O)NC(=O)[C@@H](NC(=O)[C@H](CC(C)C)NC(=O)[C@H](CCCCN)NC(=O)[C@H](CCCNC(=N)N)NC(=O)[C@H](CCCCN)NC(=O)[C@H](C)NC(=O)[C@@H](N)CCC(=O)O)[C@@H](C)O)C(=O)O [3102.0742] (H-EAKRKLTEL-OH) | 2.5 |
| CC[C@H](C)[C@H](NC(=O)[C@H](CCCCN)NC(=O)[C@H](CC(C)C)NC(=O)[C@@H](NC(=O)[C@H](Cc1c[nH]cn1)NC(=O)[C@H](CCCCN)NC(=O)[C@H](CCCNC(=N)N)NC(=O)[C@H](CC(C)C)NC(=O)[C@@H](N)CC(C)C)[C@@H](C)O)C(=O)O [3102.0636] (H-LLRKHTLKI-OH) | 21 |
| CSCC[C@H](N)C(=O)N[C@@H](CC(C)C)C(=O)N[C@@H](CC(C)C)C(=O)N[C@@H](CS)C(=O)N[C@@H](Cc1c[nH]cn1)C(=O)N[C@@H](CCCCN)C(=O)N1CCC[C@H]1C(=O)N[C@H](C(=O)N[C@@H](CC(C)C)C(=O)O)[C@@H](C)O [3102.0644] (H-MLLCHKPTL-OH) | 19 |
| CSCC[C@H](N)C(=O)N[C@@H](Cc1ccc(O)cc1)C(=O)N[C@@H](CCCCN)C(=O)N[C@@H](CO)C(=O)N[C@@H](CCCNC(=N)N)C(=O)N[C@H](C(=O)N[C@@H](CCC(=O)O)C(=O)N[C@@H](CCCNC(=N)N)C(=O)N[C@H](C(=O)O)C(C)C)C(C)C [3102.0607] (H-MYKSRVERV-OH) | 47 |
| CSCC[C@H](N)C(=O)N[C@@H](CCCNC(=N)N)C(=O)N[C@@H](Cc1ccccc1)C(=O)N[C@@H](CCCCN)C(=O)N[C@@H](CCCCN)C(=O)N[C@@H](CCC(=O)O)C(=O)N[C@@H](CO)C(=O)N[C@@H](CO)C(=O)N[C@@H](CC(C)C)C(=O)O [3102.0545] (H-MRFKKESSL-OH) | 3.4 |
| CC[C@H](C)[C@H](NC(=O)[C@@H](NC(=O)[C@H](CC(N)=O)NC(=O)[C@H](CCCCN)NC(=O)[C@H](CCCNC(=N)N)NC(=O)[C@@H](NC(=O)[C@H](Cc1ccccc1)NC(=O)[C@H](CC(C)C)NC(=O)[C@@H](N)Cc1ccc(O)cc1)[C@@H](C)CC)C(C)C)C(=O)O [3102.0531] (H-YLFIRKNVI-OH) | 0.71 |
| CC[C@H](C)[C@H](NC(=O)[C@H](C)NC(=O)[C@H](CO)NC(=O)[C@H](Cc1ccccc1)NC(=O)[C@H](CCCCN)NC(=O)[C@H](CCCCN)NC(=O)[C@H](CO)NC(=O)[C@@H](NC(=O)[C@@H](N)CC(N)=O)[C@@H](C)CC)C(=O)O [3102.0717] (H-NISKKFSAI-OH) | 2.8 |
